# Measured values taken from patent US7381698B2, “Methods for treatment of acute pancreatitis” (ChiRhoClin, Inc., priority 2003, dated 2008).
# Where no end group is shown, it is not given here.
# Assays:
# [1] = tested on: patients undergoing ERCP; test: Return to pre-ERCP activity levels and return to work in ERCP patients; format: in vivo, human
# From the text: Additional secondary efficacy variables assessed were return to baseline (pre-ERCP levels of activity) and the time in days to return of pre-ERCP activity levels. There was a small difference in the percentage of patients reporting return to baseline activity within the follow-up period (2 to 4 days post-ERCP) favoring the placebo group (p=0.0230) (49.78% vs. 42.09%). Interims of the mean number of days required to achieve pre-ERCP activity levels, was 0.6 (±1.0) for the sPS group and 0.7 (±0.9) for the placebo group. An attempt was made to obtain information on return to work. Relatively few data points were able to be collected, however, because a large percentage of patients were not working pre-ERCP (retired, too ill, etc.) among the 185 patients (95 in the sPS group and 90 in the placebo group) providing relevant responses for this variable, 46.32% of sPS patients and 50.00% of placebo patients reported returning to work within the follow-up period.
# [2] = tested on: post-ERCP pancreatitis in patients undergoing ERCP; test: Randomized, double-blind, placebo controlled study in ERCP patients: incidence and severity of post-ERCP pancreatitis; format: in vivo, human
# From the text: Pancreatitis is the most common medically significant complication following Endoscopic Retrograde Cholangio-Pancreatography ([…]) procedures. The symptoms and pathophysiology of post-ERCP pancreatitis and acute pancreatitis are identical, and patients at risk for postERCP pancreatitis or suffering early signs of the condition provide good data for evaluation of therapies for acute pancreatitis. An evaluation of the clinical efficacy of dosages of secretin to treat or prevent the onset of pancreatitis in patients undergoing ERCP is described below.
# A total of 979 ERCP patients were randomized, received study drug and were evaluable for efficacy. The demographic profiles of the patients who were randomized and received treatment with study drug by treatment group are summarized in Table 1.
# The primary efficacy variable was the overall incidence of post-ERCP pancreatitis.
# The difference in the incidence of post-ERCP pancreatitis between the two treatment groups in favor of the sPS treated patients was highly significant. The p-value of 0.0161 was sufficient to allow the study to be discontinued on the basis of the planned interim analysis of approximately 1,000 evaluable patients. The severity of the cases of post-ERCP pancreatitis, which did occur in each treatment group is depicted in Table 4 below.
# The frequency of post-ERCP pancreatitis was evaluated in numerous patient sub-populations defined by the types of procedures performed during the ERCP.
# [3] = number of cases (% of 44 pancreatitis cases), N = 488/44
substance,measurement,setting,value
"synthetic porcine secretin (HSDGTFTSELSRLRDSARLQRLLQGLV; not fully specified; ends and bridges not checked; UniProt P63298 33-59, looked up) [SPS, Study drug; abbreviation not defined]",mean number of days required to achieve pre-ERCP activity levels,[1]; mean (±SD),0.6 (±1.0) days
same,patients reporting returning to work,"[1]; within the follow-up period, 95 patients in the sPS group, not significant",46.32%
same,Post-ERCP Pancreatitis Severity Rating (%): Severe,[2]; [3],1 (2.27) %
same,Post-ERCP Pancreatitis Severity Rating (%): Unknown,[2]; [3],7 (15.91) %
same,Post-ERCP Pancreatitis Severity Rating (%): Total,"[2]; number of cases (% of 44 pancreatitis cases), N = 488/44, overall p 0.6278",44 (100.0) %
same,Post-ERCP Pancreatitis Severity Rating (%): Moderate,"[2]; number of cases (% of 44 pancreatitis cases), N = 488/44, p 0.117",9 (20.45) %
same,Post-ERCP Pancreatitis Severity Rating (%): Minimal,"[2]; number of cases (% of 44 pancreatitis cases), N = 488/44, p 0.289",13 (29.55) %
same,Post-ERCP Pancreatitis Severity Rating (%): Mild,"[2]; number of cases (% of 44 pancreatitis cases), N = 488/44, p 0.590",14 (31.82) %
same,"Overall Incidence of Post-ERCP Pancreatitis, No (%)","[2]; number of patients (%), N = 488",444 (90.98) %
same,"Overall Incidence of Post-ERCP Pancreatitis, Yes (%)","[2]; number of patients (%), N = 488, p 0.0161 vs placebo, Fisher Exact Test",44 (9.02) %
same,"Incidence of Post-ERCP Pancreatitis, No (%)","[2]; sub-population Cannulation of CBD, N = 361",334 (92.52) %
same,"Incidence of Post-ERCP Pancreatitis, Yes (%)","[2]; sub-population Cannulation of CBD, N = 361, p 0.0010",27 (7.48) %
same,"Incidence of Post-ERCP Pancreatitis, No (%)","[2]; sub-population Cannulation of Pancreatic Duct, N = 220",190 (86.36) %
same,"Incidence of Post-ERCP Pancreatitis, Yes (%)","[2]; sub-population Cannulation of Pancreatic Duct, N = 220, p 0.1237",30 (13.64) %
same,"Incidence of Post-ERCP Pancreatitis, No (%)","[2]; sub-population Manometry of CBD, N = 19",15 (78.95) %
same,"Incidence of Post-ERCP Pancreatitis, Yes (%)","[2]; sub-population Manometry of CBD, N = 19, p 0.0819",4 (21.05) %
same,"Incidence of Post-ERCP Pancreatitis, Yes (%)","[2]; sub-population Manometry of CBD, N = 19, p 0.0819, listed as sPS",21.05%
same,"Incidence of Post-ERCP Pancreatitis, No (%)","[2]; sub-population Manometry of Pancreatic Duct, N = 11",6 (54.58) %
same,"Incidence of Post-ERCP Pancreatitis, Yes (%)","[2]; sub-population Manometry of Pancreatic Duct, N = 11, p 0.3665",5 (45.45) %
same,"Incidence of Post-ERCP Pancreatitis, No (%)","[2]; sub-population Sphincterotomy of CBD, N = 140",133 (95.00) %
same,"Incidence of Post-ERCP Pancreatitis, Yes (%)","[2]; sub-population Sphincterotomy of CBD, N = 140, p 0.0001",7 (5.00) %
same,"Incidence of Post-ERCP Pancreatitis, No (%)","[2]; sub-population Sphincterotomy of Pancreatic Duct, N = 26",14 (57.85) %
same,"Incidence of Post-ERCP Pancreatitis, Yes (%)","[2]; sub-population Sphincterotomy of Pancreatic Duct, N = 26, p 0.1666",12 (46.15) %
same,"Incidence of Post-ERCP Pancreatitis, No (%)","[2]; sub-population Stent Insertion into CBD, N = 108",105 (97.22) %
same,"Incidence of Post-ERCP Pancreatitis, Yes (%)","[2]; sub-population Stent Insertion into CBD, N = 108, p 0.0856",3 (2.78) %
same,"Incidence of Post-ERCP Pancreatitis, Yes (%)","[2]; sub-population Stent Insertion into CBD, N = 108, p 0.0856, listed as sPS",2.78%
same,"Incidence of Post-ERCP Pancreatitis, No (%)","[2]; sub-population Stent Insertion into Pancreatic Duct, N = 23",18 (78.26) %
same,"Incidence of Post-ERCP Pancreatitis, Yes (%)","[2]; sub-population Stent Insertion into Pancreatic Duct, N = 23, p 1.0000",5 (21.74) %
same,"Incidence of Post-ERCP Pancreatitis, Yes (%)","[2]; sub-population Stent Insertion into Pancreatic Duct, N = 23, p 1.0000, listed as sPS",21.7%
same,"Incidence of Post-ERCP Pancreatitis, No (%)","[2]; sub-population Stent Removal from CBD, N = 58",57 (98.28) %
same,"Incidence of Post-ERCP Pancreatitis, Yes (%)","[2]; sub-population Stent Removal from CBD, N = 58, p 0.6185",1 (1.72) %
same,"Incidence of Post-ERCP Pancreatitis, No (%)","[2]; sub-population Stent Removal from Pancreatic Duct, N = 17",15 (88.24) %
same,"Incidence of Post-ERCP Pancreatitis, Yes (%)","[2]; sub-population Stent Removal from Pancreatic Duct, N = 17, p 1.0000",2 (11.76) %
same,"Incidence of Post-ERCP Pancreatitis, No (%)","[2]; sub-population Stone Extraction (Balloon), N = 55",51 (92.73) %
same,"Incidence of Post-ERCP Pancreatitis, Yes (%)","[2]; sub-population Stone Extraction (Balloon), N = 55, p 1.0000",4 (7.27) %
same,"Incidence of Post-ERCP Pancreatitis, No (%)","[2]; sub-population Stone Extraction (Basket), N = 35",34 (97.14) %
same,"Incidence of Post-ERCP Pancreatitis, Yes (%)","[2]; sub-population Stone Extraction (Basket), N = 35, p 0.2298",1 (2.86) %
